≈ marks a conversion by molar mass, not a printed value. Read-outs that look alike come from different tables or passages of the source.
How the values were obtained:
[1] = cited from earlier work
[2] = parameters: method as in PMID 36295310; settings: short esters, previously reported; cited from earlier work
[3] = Solubility of esters in benzyl alcohol / benzyl benzoate / oil mixtures; type: physicochemical; settings: for solubility: oil or lipid, thermodynamic from solid
Experimental: The esters’ solubility (mg/mL) was evaluated in mixtures which included different solvents and organic oils, such as medium-chain triglyceride (MCT), apricot, grape seed (GSO), castor, cottonseed, […] sesame oil.
The solutions contained mixtures of benzyl alcohol, benzyl benzoate and oil, with a volumetric ratio of 2% benzyl alcohol, 20% benzyl benzoate and 78% oil. Numerous pharmaceuticals of various lipophilic agents (various steroids were included) use benzyl benzoate as a co-solvent/solubilizer; benzyl alcohol behaves as well as a solvent and inhibits the microbial growth, and meanwhile the oils act as carriers.
In certain cases, an excess of raw samples remained undissolved (in suspension) and small quantities of mixtures were added, ensuring that the resulting solutions became homogenous, clear and transparent. Three measurements were taken to improve accuracy, and their average value was used.

[4] = esterified form, intramuscular or subcutaneous injection
[5] = 14 °C, 2% benzyl alcohol, 20% benzyl benzoate, 78% medium-chain triglyceride, 14 °C, average of three measurements, read-out: Solubility MCT
[6] = 14 °C, average over the six oil mixtures, 14 °C, read-out: Average solubility
[7] = benzyl alcohol / benzyl benzoate / apricot oil mixture, 14 °C, 2% benzyl alcohol, 20% benzyl benzoate, 78% apricot oil, 14 °C, average of three measurements, read-out: Solubility APRICOT
[8] = benzyl alcohol / benzyl benzoate / castor oil mixture, 14 °C, 2% benzyl alcohol, 20% benzyl benzoate, 78% castor oil, 14 °C, average of three measurements, read-out: Solubility CASTOR
[9] = benzyl alcohol / benzyl benzoate / cottonseed oil mixture, 14 °C, 2% benzyl alcohol, 20% benzyl benzoate, 78% cottonseed oil, 14 °C, average of three measurements, read-out: Solubility COTTON
[10] = benzyl alcohol / benzyl benzoate / grape seed oil mixture, 14 °C, 2% benzyl alcohol, 20% benzyl benzoate, 78% grape seed oil, 14 °C, average of three measurements, read-out: Solubility GSO
[11] = benzyl alcohol / benzyl benzoate / sesame oil mixture, 14 °C, 2% benzyl alcohol, 20% benzyl benzoate, 78% sesame oil, 14 °C, average of three measurements, read-out: Solubility SESAME

Row | Compound | Solubility, averaging [2] [mg/mL] | Half-life [1, 4] | solubility [3, 5] [mg/mL] | solubility [3, 6] [mg/mL] | solubility [3, 7] [mg/mL] | solubility [3, 8] [mg/mL] | solubility [3, 9] [mg/mL] | solubility [3, 10] [mg/mL] | solubility [3, 11] [mg/mL] | other results
1 | C[C@]12CC[C@H]3[C@@H](CCC4=CC(=O)CC[C@@]43C)[C@@H]1CC[C@@H]2O [Testosterone, 17β-Hydroxyandrost-4-en-3-one] |  |  |  |  |  |  |  |  |  | Half-life ([1]; non-esterified testosterone): a few hours
2 | CC(=O)O[C@H]1CC[C@H]2[C@@H]3CCC4=CC(=O)CC[C@]4(C)[C@H]3CC[C@]12C [testosterone acetate] | 110 | less than 24 h |  |  |  |  |  |  |  | 
3 | CC(C)CCC(=O)O[C@H]1CC[C@H]2[C@@H]3CCC4=CC(=O)CC[C@]4(C)[C@H]3CC[C@]12C [isocaproate] | 447 (≈ 1160 mM) |  |  |  |  |  |  |  |  | 
4 | C[C@]12CC[C@H]3[C@@H](CCC4=CC(=O)CC[C@@]43C)[C@@H]1CC[C@@H]2OC(=O)CCC1CCCC1 [TCyp, Androst-4-en-17β-ol-3-one 17β-cyclopentylpropionate] |  |  | 257 (≈ 623 mM) | ~255 (≈ 618 mM) | 238 (≈ 576 mM) | 287 (≈ 695 mM) | 236 (≈ 573 mM) | 239 (≈ 580 mM) | 278 (≈ 674 mM) | 
5 | Androst-4-en-17β-ol-3-one 17β-undecanoate [TUnd] |  | up to 36 days |  |  |  |  |  |  |  | Solubility APRICOT ([3]; 2% benzyl alcohol, 20% benzyl benzoate, 78% apricot oil, 14 °C, average of three measurements): 200.1 mg/mL; Solubility CASTOR ([3]; 2% benzyl alcohol, 20% benzyl benzoate, 78% castor oil, 14 °C, average of three measurements): 196.3 mg/mL; Solubility COTTON ([3]; 2% benzyl alcohol, 20% benzyl benzoate, 78% cottonseed oil, 14 °C, average of three measurements): 195.5 mg/mL; Solubility GSO ([3]; 2% benzyl alcohol, 20% benzyl benzoate, 78% grape seed oil, 14 °C, average of three measurements): 183.1 mg/mL; Solubility MCT ([3]; 2% benzyl alcohol, 20% benzyl benzoate, 78% medium-chain triglyceride, 14 °C, average of three measurements): 201.8 mg/mL; Solubility SESAME ([3]; 2% benzyl alcohol, 20% benzyl benzoate, 78% sesame oil, 14 °C, average of three measurements): 209.1 mg/mL; Average solubility ([3]; average over the six oil mixtures, 14 °C): roughly 197 mg/mL
6 | CCCCCCCCCC(=O)OC1CCC2C3CCC4=CC(=O)CCC4(C)C3CCC12C (stereo not drawn) [TDec, Androst-4-en-17β-ol-3-one 17β-decanoate] |  |  | 597 (≈ 1350 mM) | 534 (≈ 1210 mM) | 537 (≈ 1210 mM) | 530 (≈ 1200 mM) | 496 (≈ 1120 mM) | 497 (≈ 1120 mM) | 549 (≈ 1240 mM) | Solubility fold greater than the other esters ([3]; TDec compared with TCyp and TUnd, average solubility): 2.5–3 fold

— paper PMC10096163, “Structural Insights and Intermolecular Energy for Some Medium and Long-Chain Testosterone Esters” (Molecules, 2023)
